Measured values from patent US4552701A, “Glycopeptide antibiotics and process of preparation” (Eli Lilly and Company, priority 1984, dated 1985).

Assays:
[1] = tested on: Peptostreptococcus anaerobius 1428; type: cell-based; settings: agar dilution, read after 24 hrs
[2] = tested on: Propionibacterium acnes 79; type: cell-based; settings: agar dilution, read after 24 hrs
[3] = tested on: Peptostreptococcus intermedius 1264; type: cell-based; settings: agar dilution, read after 24 hrs
[4] = tested on: Bacteroides thetaiotaomicron 1438; type: cell-based; settings: agar dilution, read after 24 hrs
[5] = tested on: Staphylococcus epidermidis EP11; type: cell-based; settings: agar dilution
[6] = tested on: Clostridium difficile 2994; type: cell-based; settings: agar dilution, read after 24 hrs
Description: (§1) | read after 24hrs. incubation.

[7] = tested on: Clostridium septicum 1128; type: cell-based; settings: agar dilution, read after 24 hrs
Description: as §1

[8] = tested on: Escherichia coli EC14; type: cell-based; settings: agar dilution
[9] = tested on: Streptococcus pyogenes C203; type: cell-based; settings: agar dilution
[10] = tested on: Bacteroides melaninogenicus 1856/28; type: cell-based; settings: agar dilution, read after 24 hrs
[11] = tested on: Eubacterium aerofaciens 1235; type: cell-based; settings: agar dilution, read after 24 hrs
[12] = tested on: Streptococcus pyogenes; test: experimental bacterial infection in mice, ED50; type: in vivo; settings: subcutaneous, two doses
Description: (§2) The formula 1 compounds have also shown in vivo antimicrobial activity against experimental bacterial infections. When two doses of test compound were administered to mice in experimental infections, the activity observed was measured as an ED50 value [effective dose in mg/kg to protect 50% of the test animals: see Warren Wick, et al., J. Bacteriol. 81, 233-235 (1961)].

[13] = tested on: Staphylococcus aureus; test: experimental bacterial infection in mice, ED50; type: in vivo; settings: subcutaneous, two doses
Description: as §2

[14] = tested on: Streptococcus pneumoniae; test: experimental bacterial infection in mice, ED50; type: in vivo; settings: subcutaneous, two doses
Description: as §2

[15] = tested on: Bacteroides vulgatis 1211; type: cell-based; settings: agar dilution, read after 24 hrs
[16] = tested on: Haemophilus influenzae C.L.; type: cell-based; settings: agar dilution
[17] = tested on: Bacteroides melaninogenicus 2736; type: cell-based; settings: agar dilution, read after 24 hrs
[18] = tested on: Bacteroides fragilis 1936B; type: cell-based; settings: agar dilution, read after 24 hrs
[19] = tested on: Klebsiella pneumonia KAE; type: cell-based; settings: agar dilution
[20] = tested on: Klebsiella pneumonia X68; type: cell-based; settings: agar dilution
[21] = tested on: Peptococcus asaccharolyticus 1302; type: cell-based; settings: agar dilution, read after 24 hrs
[22] = tested on: Fusobacterium necrophorum 6054A; type: cell-based; settings: agar dilution, read after 24 hrs
[23] = tested on: Bacteroides fragilis 111; type: cell-based; settings: agar dilution, read after 24 hrs
[24] = tested on: Peptococcus prevoti 1281; settings: agar dilution, read after 24 hrs
[25] = tested on: Klebsiella pneumonia X26; type: cell-based; settings: agar dilution
[26] = tested on: Escherichia coli N10; type: cell-based; settings: agar dilution
[27] = tested on: Fusobacterium symbiosum 1470; type: cell-based; settings: agar dilution, read after 24 hrs
[28] = tested on: Streptococcus pneumoniae Park 1; type: cell-based; settings: agar dilution
[29] = tested on: gram-positive microorganisms; test: in vitro antibacterial activity (general statement); type: cell-based; settings: statement in words
[30] = tested on: Staphylococcus aureus NRRL B313; settings: agar dilution
[31] = tested on: Bacteroides fragilis 1877; type: cell-based; settings: agar dilution, read after 24 hrs
[32] = tested on: Staphylococcus aureus V41; settings: agar dilution
[33] = tested on: Streptococcus sp. group D 2041; type: cell-based; settings: agar dilution
[34] = tested on: Streptococcus faecium ATCC 9790; type: cell-based; settings: agar dilution
[35] = tested on: Clostridium perfringens 81; type: cell-based; settings: agar dilution, read after 24 hrs
[36] = tested on: Haemophilus influenzae 76; type: cell-based; settings: agar dilution
[37] = tested on: Escherichia coli TEM; type: cell-based; settings: agar dilution
[38] = tested on: Bacteroides corrodens 1874; type: cell-based; settings: agar dilution, read after 24 hrs
[39] = tested on: Staphylococcus aureus X400; settings: agar dilution
[40] = tested on: Staphylococcus epidermidis 222; type: cell-based; settings: agar dilution

CN[C@H](CC(C)C)C(=O)N[C@H]1C(=O)N[C@@H](CC(N)=O)C(=O)N[C@H]2C(=O)N[C@H]3C(=O)N[C@H](C(=O)N[C@H](C(=O)O)c4cc(O)cc(O)c4-c4cc3ccc4O)[C@H](O)c3ccc(c(Cl)c3)Oc3cc2cc(c3O)Oc2ccc(cc2Cl)[C@H]1O [Compound 10, aglucovancomycin]
64 µg/mL: MIC [16] | MIC [21] | MIC [33] | MIC [36] | MIC [37]
16.54 mg/kg/2: ED50 [14]
128 µg/mL: MIC [11] | MIC [15] | MIC [17] | MIC [31]
0.5 µg/mL: MIC [9] | MIC [28] | MIC [30]
good in vitro antibacterial activity: antibacterial activity [29]
8 µg/mL: MIC [2] | MIC [6] | MIC [7] | MIC [24] | MIC [27] | MIC [35]
2 µg/mL: MIC [5] | MIC [22]
1 µg/mL: MIC [32] | MIC [34] | MIC [39] | MIC [40]
8.75 mg/kg/2: ED50 [13]
32 µg/mL: MIC [1]
> 128 µg/mL: MIC [3] | MIC [4] | MIC [8] | MIC [10] | MIC [18] | MIC [19] | MIC [20] | MIC [23] | MIC [25] | MIC [26] | MIC [38]
22.3 mg/kg/2: ED50 [12]

CC(C)C[C@@H](N)C(=O)N[C@H]1C(=O)N[C@@H](CC(N)=O)C(=O)N[C@H]2C(=O)N[C@H]3C(=O)N[C@H](C(=O)N[C@H](C(=O)O)c4cc(O)cc(O)c4-c4cc3ccc4O)[C@H](O)c3ccc(c(Cl)c3)Oc3cc2cc(c3O)Oc2ccc(cc2Cl)[C@H]1O [Compound 9, Agluco-A51568A]
0.74 mg/kg/2: ED50 [13]
128 µg/mL: MIC [16] | MIC [36]
64 µg/mL: MIC [4] | MIC [18] | MIC [23] | MIC [31] | MIC [38]
≥ 0.5 µg/mL: MIC [1] | MIC [22]
> 128 µg/mL: MIC [8] | MIC [10] | MIC [19] | MIC [20] | MIC [25] | MIC [26] | MIC [37]
0.5 µg/mL: MIC [28] | MIC [30] | MIC [32] | MIC [39]
1.8 mg/kg/2: ED50 [14]
1 µg/mL: MIC [2] | MIC [3] | MIC [5] | MIC [6] | MIC [7] | MIC [9] | MIC [11] | MIC [15] | MIC [21] | MIC [24] | MIC [34] | MIC [35] | MIC [40]
4 µg/mL: MIC [17] | MIC [27]
2.0 mg/kg/2: ED50 [12]
2 µg/mL: MIC [33]

CC(C)C[C@H](C(=O)N[C@H]1C(=O)N[C@@H](CC(N)=O)C(=O)N[C@H]2C(=O)N[C@H]3C(=O)N[C@H](C(=O)N[C@H](C(=O)[O-])c4cc(O)cc(O)c4-c4cc3ccc4O)[C@H](O)c3ccc(c(Cl)c3)Oc3cc2cc(c3O)Oc2ccc(cc2Cl)[C@H]1O)[N+](C)(C)C [Compound 11, Agluco-M43A]
1 µg/mL: MIC [28]
2 µg/mL: MIC [5] | MIC [9] | MIC [30] | MIC [32] | MIC [34] | MIC [39] | MIC [40]
32 µg/mL: MIC [36]
> 128 µg/mL: MIC [8] | MIC [19] | MIC [20] | MIC [25] | MIC [26] | MIC [37]
3.63 mg/kg/2: ED50 [12]
3.06 mg/kg/2: ED50 [13] | ED50 [14]
4 µg/mL: MIC [33]
128 µg/mL: MIC [16]

CN[C@H](CC(C)C)C(=O)N[C@H]1C(=O)N[C@@H](CC(N)=O)C(=O)N[C@H]2C(=O)N[C@H]3C(=O)N[C@H](C(=O)N[C@H](C(=O)O)c4cc(O)cc(O)c4-c4cc3ccc4O)[C@H](O)c3ccc(c(Cl)c3)Oc3cc2cc(c3O[C@@H]2O[C@H](CO)[C@@H](O)[C@H](O)[C@H]2O)Oc2ccc(cc2Cl)[C@H]1O [Compound 13, Desvancosamine-Vancomycin]
128 µg/mL: MIC [36]
> 128 µg/mL: MIC [8] | MIC [16] | MIC [19] | MIC [20] | MIC [25] | MIC [26] | MIC [37]
4 µg/mL: MIC [9] | MIC [28]
32 µg/mL: MIC [33]
16 µg/mL: MIC [5]
8 µg/mL: MIC [30] | MIC [32] | MIC [34] | MIC [39] | MIC [40]

CC(C)C[C@H](C(=O)N[C@H]1C(=O)N[C@@H](CC(N)=O)C(=O)N[C@H]2C(=O)N[C@H]3C(=O)N[C@H](C(=O)N[C@H](C(=O)[O-])c4cc(O)cc(O)c4-c4cc3ccc4O)[C@H](O)c3ccc(c(Cl)c3)Oc3cc2cc(c3O[C@@H]2O[C@H](CO)[C@@H](O)[C@H](O)[C@H]2O)Oc2ccc(cc2Cl)[C@H]1O)[N+](C)(C)C [Compound 5, M43C]
2 µg/mL: MIC [30] | MIC [32] | MIC [39]
8 µg/mL: MIC [5] | MIC [33]
4 µg/mL: MIC [34] | MIC [40]
1 µg/mL: MIC [9] | MIC [28]
> 64 µg/mL: MIC [8] | MIC [16] | MIC [19] | MIC [20] | MIC [25] | MIC [26] | MIC [37]
64 µg/mL: MIC [36]

CC(C)C[C@@H](N)C(=O)N[C@H]1C(=O)N[C@@H](CC(N)=O)C(=O)N[C@H]2C(=O)N[C@H]3C(=O)N[C@H](C(=O)N[C@H](C(=O)O)c4cc(O)cc(O)c4-c4cc3ccc4O)[C@H](O)c3ccc(c(Cl)c3)Oc3cc2cc(c3O[C@@H]2O[C@H](CO)[C@@H](O)[C@H](O)[C@H]2O)Oc2ccc(cc2Cl)[C@H]1O [Compound 12, Desvancosamine-A51568A]
8 µg/mL: MIC [33]
128 µg/mL: MIC [37]
2 µg/mL: MIC [9] | MIC [30] | MIC [32] | MIC [39]
1 µg/mL: MIC [28]
4 µg/mL: MIC [5] | MIC [34] | MIC [40]
> 128 µg/mL: MIC [8] | MIC [16] | MIC [19] | MIC [20] | MIC [25] | MIC [26] | MIC [36]
